ChEMBL document CHEMBL1909046, “DrugMatrix in vitro pharmacology data”
pIC50, pKi: −log10 of the molar value.

Key:
[1] = molecular target: 5-hydroxytryptamine receptor 2B (Homo sapiens, UniProt P41595); assay type: cell membranes, CHO-K1, Membrane; details: for IC50 / Ki: cho-k1; for pIC50: read-out: IC50; for pKi: read-out: Ki; on all read-outs here: in other assays of this panel Not Active means under 50% inhibition at 10 µM
Melanocortin receptor 4 = Melanocortin receptor 4 (Homo sapiens, UniProt P32245); assay type: cell membranes, Membrane; details: hek293; further: in other assays of this panel Not Active means under 50% inhibition at 10 µM
Chain of Melanocortin receptor 4 (P32245 whole entry): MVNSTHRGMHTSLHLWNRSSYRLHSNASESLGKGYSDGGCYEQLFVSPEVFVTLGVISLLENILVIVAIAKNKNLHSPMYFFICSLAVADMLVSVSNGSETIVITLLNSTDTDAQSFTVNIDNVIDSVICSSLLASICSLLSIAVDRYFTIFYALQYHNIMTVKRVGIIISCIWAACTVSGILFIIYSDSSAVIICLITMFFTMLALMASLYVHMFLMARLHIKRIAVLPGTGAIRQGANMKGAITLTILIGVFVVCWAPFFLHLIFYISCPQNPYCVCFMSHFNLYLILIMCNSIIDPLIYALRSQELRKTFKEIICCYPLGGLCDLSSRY

[2] = molecular target: Kappa-type opioid receptor (Homo sapiens, UniProt P41145); assay: DRUGMATRIX: Opiate kappa (OP2, KOP) radioligand binding (ligand: [3H] Diprenorphine); assay type: cell membranes, HEK293, Membrane; details: Not Active = under 50% inhibition at 10 µM; for IC50: hek293
Chain of Kappa-type opioid receptor (P41145 whole entry): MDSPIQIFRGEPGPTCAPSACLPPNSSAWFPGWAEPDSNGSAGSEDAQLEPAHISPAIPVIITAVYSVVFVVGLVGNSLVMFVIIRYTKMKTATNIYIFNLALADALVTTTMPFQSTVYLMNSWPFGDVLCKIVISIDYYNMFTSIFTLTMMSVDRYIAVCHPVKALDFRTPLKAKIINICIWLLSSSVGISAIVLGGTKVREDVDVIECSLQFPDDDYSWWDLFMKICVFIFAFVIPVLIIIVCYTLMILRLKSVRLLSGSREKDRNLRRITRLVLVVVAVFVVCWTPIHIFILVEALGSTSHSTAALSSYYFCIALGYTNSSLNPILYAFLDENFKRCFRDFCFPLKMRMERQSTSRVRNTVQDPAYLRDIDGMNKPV

[3] = molecular target: T1, Neuropeptide Y receptor type 2 (Homo sapiens, UniProt P49146); assay type: cell membranes, Membrane; details: kan-ts; further: in other assays of this panel Not Active means under 50% inhibition at 10 µM
T1 sequence (P49146 whole entry): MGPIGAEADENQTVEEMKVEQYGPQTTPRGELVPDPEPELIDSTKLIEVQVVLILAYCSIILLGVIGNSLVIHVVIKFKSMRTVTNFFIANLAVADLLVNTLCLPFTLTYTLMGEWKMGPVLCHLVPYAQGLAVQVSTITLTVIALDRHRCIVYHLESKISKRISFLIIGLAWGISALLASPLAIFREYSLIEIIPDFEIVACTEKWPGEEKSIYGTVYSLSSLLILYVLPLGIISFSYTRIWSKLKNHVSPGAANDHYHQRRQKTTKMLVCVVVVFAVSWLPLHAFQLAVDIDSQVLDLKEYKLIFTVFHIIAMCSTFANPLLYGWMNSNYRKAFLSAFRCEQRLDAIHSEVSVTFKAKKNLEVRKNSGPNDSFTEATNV

[4] = molecular target: T2, 5-hydroxytryptamine receptor 2C (Homo sapiens, UniProt P28335); assay: DRUGMATRIX: Serotonin (5-Hydroxytryptamine) 5-HT2C radioligand binding (ligand: [3H] Mesulergine); assay type: cell membranes, CHO-K1, Membrane; details: Not Active = under 50% inhibition at 10 µM; for IC50 / Ki: cho-k1; for pIC50: read-out: IC50; for pKi: read-out: Ki
T2 sequence (P28335 whole entry): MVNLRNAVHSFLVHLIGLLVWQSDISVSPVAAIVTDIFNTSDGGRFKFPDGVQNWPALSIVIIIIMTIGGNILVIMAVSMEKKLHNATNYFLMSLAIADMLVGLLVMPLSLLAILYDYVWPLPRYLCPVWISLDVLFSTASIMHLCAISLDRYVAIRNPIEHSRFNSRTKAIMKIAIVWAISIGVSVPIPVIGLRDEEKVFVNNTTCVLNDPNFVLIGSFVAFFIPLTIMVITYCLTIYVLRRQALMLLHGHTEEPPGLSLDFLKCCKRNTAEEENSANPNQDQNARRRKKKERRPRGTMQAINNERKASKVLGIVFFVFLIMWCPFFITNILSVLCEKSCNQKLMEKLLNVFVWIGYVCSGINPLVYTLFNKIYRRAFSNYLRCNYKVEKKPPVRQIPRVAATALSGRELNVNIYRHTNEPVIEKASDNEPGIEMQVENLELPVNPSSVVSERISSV

Cytochrome P450 3A4 = Cytochrome P450 3A4 (Homo sapiens, UniProt P08684); details: bti-tn-5b1-4; further: in other assays of this panel Not Active means under 50% inhibition at 10 µM
Chain of Cytochrome P450 3A4 (P08684 whole entry): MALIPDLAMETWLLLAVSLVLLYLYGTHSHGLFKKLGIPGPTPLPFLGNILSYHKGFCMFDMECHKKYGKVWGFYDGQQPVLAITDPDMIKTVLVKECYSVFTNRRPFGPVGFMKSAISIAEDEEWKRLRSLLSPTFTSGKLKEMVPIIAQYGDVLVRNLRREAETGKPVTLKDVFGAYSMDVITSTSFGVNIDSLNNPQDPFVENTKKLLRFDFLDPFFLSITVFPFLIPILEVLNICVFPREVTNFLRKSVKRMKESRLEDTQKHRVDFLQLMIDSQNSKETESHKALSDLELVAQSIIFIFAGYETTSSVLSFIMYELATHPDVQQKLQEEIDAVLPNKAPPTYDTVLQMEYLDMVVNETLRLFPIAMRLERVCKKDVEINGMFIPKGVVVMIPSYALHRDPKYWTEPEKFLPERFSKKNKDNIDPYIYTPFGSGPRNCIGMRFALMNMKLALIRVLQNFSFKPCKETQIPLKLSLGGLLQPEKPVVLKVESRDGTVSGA

Chain of 5-hydroxytryptamine receptor 2B (P41595 whole entry): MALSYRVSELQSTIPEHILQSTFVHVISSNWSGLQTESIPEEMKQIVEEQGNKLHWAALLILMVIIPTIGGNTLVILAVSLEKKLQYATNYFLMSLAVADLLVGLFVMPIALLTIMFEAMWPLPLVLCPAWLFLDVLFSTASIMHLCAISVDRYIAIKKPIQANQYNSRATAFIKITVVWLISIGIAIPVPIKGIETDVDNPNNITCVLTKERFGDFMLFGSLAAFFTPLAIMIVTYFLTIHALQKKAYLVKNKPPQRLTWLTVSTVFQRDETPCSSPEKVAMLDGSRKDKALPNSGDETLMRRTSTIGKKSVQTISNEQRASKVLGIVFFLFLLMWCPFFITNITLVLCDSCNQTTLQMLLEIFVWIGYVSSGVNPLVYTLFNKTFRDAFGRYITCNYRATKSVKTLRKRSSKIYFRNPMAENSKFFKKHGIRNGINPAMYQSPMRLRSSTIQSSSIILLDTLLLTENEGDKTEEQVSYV

| Compound | IC50 [1] | IC50 (Melanocortin receptor 4) | IC50 [2] | IC50 [3] | IC50 [4] | IC50 (Cytochrome P450 3A4) | Ki (Cytochrome P450 3A4) | further results |
| --- | --- | --- | --- | --- | --- | --- | --- | --- |
| CCOc1nc2cccc(C(=O)O)c2n1Cc1ccc(-c2ccccc2-c2nnn[nH]2)cc1 | Not Active | Not Active | Not Active | Not Active | Not Active |  |  |  |
| O=C(O)CCCc1cccs1 | Not Active | Not Active | Not Active | Not Active | Not Active | Not Active | Not Active |  |
| COc1ccccc1N | Not Active | Not Active | Not Active | Not Active | Not Active | Not Active | Not Active |  |
| O=C(c1ccccc1F)N1CCC(Cc2ccccc2)CC1 | Not Active | Not Active | Not Active | Not Active | Not Active | Not Active | Not Active |  |
| Cc1c(O)cccc1C(=O)N[C@@H](CSc1ccccc1)[C@H](O)CN1C[C@H]2CCCC[C@H]2C[C@H]1C(=O)NC(C)(C)C | Not Active | Not Active |  | Not Active | Not Active |  |  | pKi [2]: 4.84; pIC50 ([2]; read-out: IC50): 4.44 |
| CC(O)COC[C@H]1O[C@@H]2O[C@H]3[C@H](O)[C@@H](O)[C@@H](O[C@H]4[C@H](O)[C@@H](O)[C@@H](O[C@H]5[C@H](O)[C@@H](O)[C@@H](O[C@H]6[C@H](O)[C@@H](O)[C@@H](O[C@H]7[C@H](O)[C@@H](O)[C@@H](O[C@H]8[C@H](O)[C@@H](O)[C@@H](O[C@H]1[C@H](O)[C@H]2O)O[C@@H]8COCC(C)O)O[C@@H]7COCC(C)O)O[C@@H]6COCC(C)O)O[C@@H]5COCC(C)O)O[C@@H]4COCC(C)O)O[C@@H]3COCC(C)O (stereo partly drawn) [2-HYDROXYPROPYL-BETA-CYCLODEXTRIN] |  | Not Active | Not Active | Not Active |  | Not Active | Not Active | pIC50 [1]: 7.20; pKi [1]: 7.40; pIC50 [4]: 5.80; pKi [4]: 6.08 |
| NC(=O)c1cccc(N)c1 [3-AMINOBENZAMIDE] | Not Active | Not Active | Not Active | Not Active | Not Active | Not Active | Not Active |  |
| C[C@H]1O[C@H](O[C@H]2[C@H](O)[C@@H](O)[C@@H](O[C@H]3[C@H](O)[C@@H](O)C(O)O[C@@H]3CO)O[C@@H]2CO)[C@H](O)[C@@H](O)[C@@H]1N[C@H]1C=C(CO)[C@@H](O)[C@H](O)[C@H]1O (some centres undefined) [ACARBOSE] | Not Active | Not Active | Not Active | Not Active | Not Active | Not Active | Not Active |  |
| CC[C@H]1[C@@H]2C[C@H]3[C@@H]4N(C)c5ccccc5[C@]45C[C@@H]([C@@H]2[C@H]5O)N3[C@@H]1O [AJMALINE] | Not Active | Not Active | Not Active | Not Active | Not Active | Not Active | Not Active |  |
| NC12CC3CC(CC(C3)C1)C2 [AMANTADINE] | Not Active | Not Active | Not Active | Not Active | Not Active |  |  |  |
| NCCCNCCSP(=O)(O)O [AMIFOSTINE] | Not Active | Not Active | Not Active | Not Active | Not Active | Not Active | Not Active |  |
| CN(C)CCC=C1c2ccccc2CCc2ccccc21 [AMITRIPTYLINE] |  | Not Active | Not Active | Not Active |  | Not Active | Not Active | pIC50 [4]: 8.22; pKi [4]: 8.50 |
| CC(=O)Oc1ccccc1C(=O)O [ASPIRIN] | Not Active | Not Active | Not Active | Not Active | Not Active | Not Active | Not Active |  |
| CC(C)c1c(C(=O)Nc2ccccc2)c(-c2ccccc2)c(-c2ccc(F)cc2)n1CC[C@@H](O)C[C@@H](O)CC(=O)O [ATORVASTATIN] | Not Active | Not Active | Not Active | Not Active | Not Active |  |  |  |
| COc1cc(OC)c(C(=O)CCCN2CCCC2)c(OC)c1 [BUFLOMEDIL] | Not Active | Not Active | Not Active | Not Active | Not Active |  |  |  |
| CC(C)C[C@H]1C(=O)N2CCC[C@H]2[C@]2(O)O[C@](NC(=O)[C@@H]3C=C4c5cccc6[nH]cc(c56)C[C@H]4N(C)C3)(C(C)C)C(=O)N12 [ERGOCRYPTINE] |  | Not Active | Not Active | Not Active |  |  |  | pIC50 [1]: 7.89; pKi [1]: 8.09; pIC50 [4]: 6.83; pKi [4]: 7.11 |
| CC(C)(C(=O)O)c1ccc(C(O)CCCN2CCC(C(O)(c3ccccc3)c3ccccc3)CC2)cc1 (centres undefined) [FEXOFENADINE] | Not Active | Not Active | Not Active | Not Active | Not Active |  |  |  |
| CC(=O)OCC(=O)[C@@]12OC(C)(C)O[C@@H]1C[C@H]1[C@@H]3C[C@H](F)C4=CC(=O)C=C[C@]4(C)[C@@]3(F)[C@@H](O)C[C@@]12C [FLUOCINONIDE] | Not Active | Not Active | Not Active | Not Active | Not Active |  |  |  |
| N[C@@H](Cn1ccc(=O)c(O)c1)C(=O)O [L-MIMOSINE] | Not Active | Not Active | Not Active | Not Active | Not Active |  |  |  |
| C[N+](C)(C)C[C@H](O)CC(=O)[O-] [LEVOCARNITINE] | Not Active | Not Active |  | Not Active | Not Active | Not Active | Not Active |  |
| C[C@H]1COc2c(N3CCN(C)CC3)c(F)cc3c(=O)c(C(=O)O)cn1c23.C[C@H]1COc2c(N3CCN(C)CC3)c(F)cc3c(=O)c(C(=O)O)cn1c23.O [LEVOFLOXACIN] | Not Active | Not Active | Not Active | Not Active | Not Active |  |  |  |
| C[C@]12CC[C@H]3[C@@H](CCC4=CC(=O)CC[C@@H]43)[C@@H]1CC[C@@H]2O [NANDROLONE] | Not Active | Not Active |  | Not Active | Not Active | Not Active | Not Active |  |
| C[C@@H]1C/C=C/C=C/C=C/C=C/[C@H](O[C@@H]2O[C@H](C)[C@@H](O)[C@H](N)[C@@H]2O)C[C@@H]2O[C@](O)(C[C@@H](O)C[C@H]3O[C@@H]3/C=C/C(=O)O1)C[C@H](O)[C@H]2C(=O)O [NATAMYCIN] | Not Active | Not Active | Not Active | Not Active | Not Active |  |  |  |
| CN(C)C(=O)Oc1cccc([N+](C)(C)C)c1.[Br-] [NEOSTIGMINE BROMIDE] | Not Active | Not Active |  | Not Active | Not Active | Not Active | Not Active |  |
| C[C@@H]1O[C@@H](O[C@H]2C[C@@H](O)[C@]3(CO)[C@H]4[C@H](O)C[C@]5(C)[C@@H](C6=CC(=O)OC6)CC[C@]5(O)[C@@H]4CC[C@]3(O)C2)[C@H](O)[C@H](O)[C@H]1O [OUABAIN] | Not Active | Not Active |  | Not Active | Not Active | Not Active | Not Active |  |
| N=C(N)c1ccc(OCCCCCOc2ccc(C(=N)N)cc2)cc1 [PENTAMIDINE] | Not Active | Not Active | Not Active | Not Active |  |  |  | pIC50 [4]: 5.48; pKi [4]: 5.77 |
| NNCCc1ccccc1 [PHENELZINE] | Not Active | Not Active |  | Not Active | Not Active |  |  |  |
| COBALTOUS CHLORIDE | Not Active | Not Active |  | Not Active | Not Active | Not Active | Not Active | Ki [1]: Not Active; Ki (Melanocortin receptor 4): Not Active; Ki [3]: Not Active; Ki [4]: Not Active |
| COLISTIN | Not Active |  |  | Not Active | Not Active | Not Active | Not Active | Ki [1]: Not Active; pIC50 (Melanocortin receptor 4; read-out: IC50): 6.08; pKi (Melanocortin receptor 4; read-out: Ki): 6.09; Ki [3]: Not Active; Ki [4]: Not Active |
